The target in test [1] is HCV NS3/4A protease complex, BMS strain (UniProt P27958, C1454S/C1711G, species not given/STRAIN_BMS). In words: Recombinant HCV NS3/4A protease complex FRET peptide assay (BMS strain). Type of test: biochemical, HCV genotype 1a. In a few lines: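 Recombinant BMS-strain NS3/4A (His-tagged NS4A with three-lysine tail, E. coli) at 2-3 nM preincubated 1 min with compound, then 2 μM ester-linked NS4A/NS4B-based FRET peptide added. Fluorescence followed in real time ~15 min at 25° C. Percent inhibition from slope of linear fluorescence change versus no-compound control.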

Test [2] relates to HCV replicon in Huh7 cells. Put plainly: HCV replicon cell-based assay. Also noted: species or system HCV strain 1B. Background: In antiviral work, replicon cells carry a viral genome segment that copies itself.
The mark [3] stands for this setting: NS3/4A BMS strain; read-out: IC50 range.
Where [4] appears, read: Hepatitis C virus, Huh-7, HCV replicon, Huh7 cells, read-out: EC50 range.
[5] abbreviates: HCV replicon, Huh7 cells, read-out: EC50 range.
Setting [6] is: read-out: IC50 range; NS3/4A BMS strain.

pEC50, pIC50: −log10 of the molar value. Like-named read-outs stand apart in the source and are kept apart here. A value given as a limit tells only on which side of the number the result lay.

Consider `C=C[C@@H]1C[C@]1(NC(=O)[C@@H]1C[C@@H](Oc2cncc(-c3ccccc3)c2)CN1C(=O)[C@@H](NC(=O)OC(C)(C)C)C(C)(C)C)C(=O)NS(=O)(=O)C1CC1` [Compound 420], for which the pIC50 in test [1] (setting [3]) was greater than 7.00. Moreover, the negative-log EC50 (pEC50) in test [2] (setting [4]) was 6.00 to 7.00.
For `C=C[C@@H]1C[C@]1(NC(=O)[C@@H]1CC(Oc2nccc3cc(OC)ccc23)CN1C(=O)[C@H](CCCC)N(C)C(=O)OC(C)(C)C)C(=O)NS(=O)(=O)C1CC1` (some centres unmarked) [Compound 87] the same measures were 5.00 to 6.00 and 4.00 to 5.00.
As to `C=C[C@@H]1C[C@]1(NC(=O)[C@@H]1C[C@@H](Oc2ccc3ccccc3n2)CN1C(=O)[C@@H](NC(=O)OC(C)(C)C)C(C)(C)C)C(=O)NS(=O)(=O)C1CC1` [Compound 7], in test [1] (setting [3]), the negative logarithm of the IC50 (pIC50) is greater than 7.00. In addition, the negative-log EC50 (pEC50) in test [2] (setting [4]) is 6.00 to 7.00.
On the same counts, the results for `C=C[C@@H]1C[C@]1(NC(=O)[C@@H]1C[C@@H](Oc2nccc3ccc(Cl)cc23)CN1C(=O)[C@@H](NC(=O)OC(C)(C)C)C(C)(C)C)C(=O)NS(=O)(=O)C1CC1` [Compound 258] are greater than 7.00 and greater than 7.00.
On the same counts, the results for `C=CC1C[C@]1(NC(=O)[C@@H]1C[C@@H](Oc2nccc(-c3ccco3)n2)CN1C(=O)[C@@H](NC(=O)CC1CC1)C(C)(C)C)C(=O)NS(=O)(=O)C1CC1` (some centres unmarked) [Compound 339] are greater than 7.00 and 5.00 to 6.00.
For `C=C[C@@H]1C[C@]1(NC(=O)[C@@H]1C[C@@H](Oc2nccc3cc(OC)c(F)cc23)CN1C(=O)[C@@H](NC(=O)OC(C)(C)C)C(C)(C)C)C(=O)NS(=O)(=O)C1CC1` [Compound 261] the same measures were greater than 7.00 and greater than 7.00.
Consider `C=C[C@@H]1C[C@]1(NC(=O)[C@@H]1C[C@@H](Oc2nccc3ccccc23)CN1C(=O)[C@@H](NC(=O)Oc1ccc(F)cc1)C(C)(C)C)C(=O)NS(=O)(=O)C1CC1` [Compound 122], for which the pIC50 in test [1] (setting [3]) is greater than 7.00. The negative logarithm of the EC50 (pEC50) in test [2] (setting [4]) was 6.00 to 7.00.
As to `C=C[C@@H]1C[C@]1(NC(=O)[C@@H]1C[C@@H](Oc2nc(-c3ccco3)c(OC)c3ccccc23)CN1C(=O)[C@@H](NC(=O)OC(C)(C)C)C(C)(C)C)C(=O)NS(=O)(=O)C1CC1` [Compound 230, BOCNH-P3(L-t-BuGly)-P2[(4R)-(3-furan-2-yl-4-methoxy -isoquinolin-1-oxo)-S-proline]-P1(1R,2S VinylAcca)-CONHSO2Cyclopropane], the pIC50 in test [1] (setting [3]) was 6.00 to 7.00. Also, the negative logarithm of the EC50 (pEC50) in test [2] (setting [5]) was 6.00 to 7.00.
On to `C=C[C@@H]1C[C@]1(NC(=O)[C@@H]1C[C@@H](Oc2nc(-c3ncc(OC)o3)cc3cc(OC)ccc23)CN1C(=O)[C@@H](NC(=O)OC(C)(C)C)C(C)(C)C)C(=O)NS(=O)(=O)C1CC1` [Compound 39], for which the pIC50 in test [1] (setting [3]) was greater than 7.00. For the same compound, the pEC50 in test [2] (setting [4]) was greater than 7.00.
Consider `C=CC1C[C@]1(NC(=O)[C@@H]1C[C@@H](Oc2nc(-c3ccncc3)cc3cc(OC)ccc23)CN1C(=O)[C@@H](NC(=O)OC(C)(C)C)C(C)(C)C)C(=O)NS(=O)(=O)C1CC1` (some centres unmarked) [Compound 325], for which the pIC50 in test [1] (setting [3]) was greater than 7.00. Besides, the negative-log EC50 (pEC50) in test [2] (setting [4]) was greater than 7.00.
Regarding `C=C[C@@H]1C[C@]1(NC(=O)[C@@H]1CC(Oc2nccc3cc(OC)ccc23)CN1C(=O)[C@@H](NC(=O)NC(C)(C)Cc1ccc(F)cc1)C(C)(C)C)C(=O)NS(=O)(=O)C1CC1` (some centres unmarked) [Compound 82], the pIC50 in test [1] (setting [3]) was greater than 7.00. In test [2] (setting [4]), the pEC50 is 6.00 to 7.00.
Regarding `C=C[C@@H]1C[C@]1(NC(=O)[C@@H]1C[C@@H](Oc2nccc3cc(OC)ccc23)CN1C(=O)C(NC(=O)OC(C)(C)C)C(C)c1ccccc1)C(=O)NS(=O)(=O)C1CC1` (single isomer, unassigned) [Compound 136], the negative logarithm of the IC50 (pIC50) in test [1] (setting [3]) was greater than 7.00. The negative-log EC50 (pEC50) in test [2] (setting [5]) is 6.00 to 7.00.
For `C=C[C@@H]1C[C@]1(NC(=O)[C@@H]1C[C@@H](Oc2nc(Cl)cc3ccccc23)CN1C(=O)[C@@H](NC(=O)OC(C)(C)C)C(C)(C)C)C(=O)NS(=O)(=O)C1CC1` [Compound 24], the negative logarithm of the IC50 (pIC50) in test [1] (setting [3]) is greater than 7.00. Further, the pEC50 in test [2] (setting [4]) is greater than 7.00.
Take `C=C[C@@H]1C[C@]1(NC(=O)[C@@H]1CC(Oc2nccc3cc(OC)ccc23)CN1C(=O)[C@@H](NC(=O)NC(C)(C)CC(C)(C)C)C(C)(C)C)C(=O)NS(=O)(=O)C1CC1` (some centres unmarked) [Compound 81]: the negative logarithm of the IC50 (pIC50) in test [1] (setting [3]) was greater than 7.00. Moreover, the pEC50 in test [2] (setting [4]) was 6.00 to 7.00.
For `C=C[C@@H]1C[C@]1(NC(=O)[C@@H]1C[C@@H](Oc2nccc3cc(OC)ccc23)CN1C(=O)[C@@H](NC(=O)OC(C)(C)C)[C@H](C)OC)C(=O)NS(=O)(=O)C1CC1` [Compound 94] the same measures were greater than 7.00 and greater than 7.00.
Take `C=CC1C[C@]1(NC(=O)[C@@H]1C[C@@H](Oc2ccc3c(Cl)nccc3c2SCCC)CN1C(=O)[C@@H](NC(=O)OC(C)(C)C)C(C)(C)C)C(=O)NS(=O)(=O)C1CC1` (stereo partly drawn) [Compound 204, BOCNH-P3(L-t-BuGly)-P2[(4R)-(1-Chloro-5propylthio -isoquinolin-6-oxo)-S-proline]-P1(1R,2S VinylAcca)-CONHSO2Cyclopropane]: in test [1] (setting [3]), the pIC50 is greater than 7.00. Further, the negative logarithm of the EC50 (pEC50) in test [2] (setting [4]) is 6.00 to 7.00.
For `C=C[C@@H]1C[C@]1(NC(=O)[C@@H]1C[C@@H](Oc2ccnc3cc(OC)ccc23)CN1C(=O)[C@@H](NC(=O)OC(C)(C)C)C(C)(C)C)C(=O)NS(=O)(=O)C1CCC1` [Compound 374, BOCNH-P3(L-t -BuGly)-P2[(4R)-(7-methoxyquinoline-4-oxo)-S-proline]-P1(1R,2S Vinyl Acca)-CONHSO2-Cyclobutane], the pIC50 in test [1] (setting [3]) is greater than 7.00. In addition, the negative-log EC50 (pEC50) in test [2] (setting [4]) was 6.00 to 7.00.
For `C=C[C@@H]1C[C@]1(NC(=O)[C@@H]1C[C@@H](Oc2nccc3ccccc23)CN1C(=O)[C@@H](NC(=O)OCCOC)C(C)(C)C)C(=O)NS(=O)(=O)C1CC1` [Compound 124] the same measures were 6.00 to 7.00 and 5.00 to 6.00.
For `C=C[C@@H]1C[C@]1(NC(=O)[C@@H]1C[C@@H](Oc2nc(C#N)cc3ccccc23)CN1C(=O)[C@@H](NC(=O)OC(C)(C)C)C(C)(C)C)C(=O)NS(=O)(=O)C1CC1` [Compound 32] the same measures were greater than 7.00 and greater than 7.00.
For `C=CC1C[C@]1(NC(=O)[C@@H]1C[C@@H](Oc2nc3ccoc3c3ccccc23)CN1C(=O)[C@@H](NC(=O)OC(C)(C)C)C(C)(C)C)C(=O)NS(=O)(=O)C1CC1` (stereo partly drawn) [Compound 220, BOCNH-P3(L-t-BuGly)-P2[(4R)-(1-oxa-4-aza-cyclopenta[α]naphthalen-5-yloxy)-S-proline]-P1(1R,2S VinylAcca)-CONHSO2Cyclopropane] the same measures were greater than 7.00 and greater than 7.00.
For the compound `C=C[C@@H]1C[C@]1(NC(=O)[C@@H]1C[C@@H](Oc2ncc(OC)c3ccccc23)CN1C(=O)[C@@H](NC(=O)OC(C)(C)C)C(C)(C)C)C(=O)NS(=O)(=O)C1CC1` [Compound 251], the pIC50 in test [1] (setting [3]) is greater than 7.00. Also, in test [2] (setting [4]), the pEC50 was greater than 7.00.
Regarding `C=C[C@@H]1C[C@]1(NC(=O)[C@@H]1C[C@@H](Oc2ccnc(-c3nccs3)c2)CN1C(=O)[C@@H](NC(=O)OC1CCCC1)C(C)(C)C)C(=O)NS(=O)(=O)C1CC1` [Compound 431], the negative logarithm of the IC50 (pIC50) in test [1] (setting [3]) was greater than 7.00. The pEC50 in test [2] (setting [4]) was 6.00 to 7.00.
As to `C=C[C@@H]1C[C@]1(NC(=O)[C@@H]1C[C@@H](Oc2nc(-c3ccccc3)cc3cc(OC)ccc23)CN1C(=O)[C@@H](NC(=O)OC(C)(C)C)C(C)(C)C)C(=O)NS(=O)(=O)C1CC1` [Compound 36], the negative logarithm of the IC50 (pIC50) in test [1] (setting [6]) is greater than 7.00. For the same compound, the pEC50 in test [2] (Hepatitis C virus, Huh-7, read-out: EC50 range) was greater than 7.00.
Regarding `C=CC1C[C@]1(NC(=O)[C@@H]1C[C@@H](Oc2nccc3cc(F)ccc23)CN1C(=O)[C@@H](NC(=O)OC(C)(C)C)C(C)(C)C)C(=O)NS(=O)(=O)C1CC1` (stereo partly drawn) [Compound 187, BOCNH-P3(L-tert-BuGly)-P2[(4R)-(6-fluoro isoquinolin-1-oxo)-S -proline]-P1(1R,2S Vinyl Acca)-CONHSO2-Cyclopropane], the pIC50 in test [1] (setting [3]) was greater than 7.00. The pEC50 in test [2] (setting [4]) was 6.00 to 7.00.
In the case of `C=C[C@@H]1C[C@]1(NC(=O)[C@@H]1C[C@@H](Oc2nccc3cc(OC)ccc23)CN1C(=O)[C@@H](NC(=O)N[C@@H](C)C(=O)OC)C(C)(C)C)C(=O)NS(=O)(=O)C1CC1` [Compound 145], in test [1] (setting [3]), the negative logarithm of the IC50 (pIC50) was greater than 7.00. Also, the negative logarithm of the EC50 (pEC50) in test [2] (setting [4]) was 6.00 to 7.00.
On the same counts, the results for `CC[C@@H]1C[C@]1(NC(=O)[C@@H]1C[C@@H](Oc2nccc3ccc(C)cc23)CN1C(=O)[C@@H](NC(=O)OC(C)(C)C)C(C)(C)C)C(=O)NS(=O)(=O)C1CC1` [Compound 296] are greater than 7.00 and 6.00 to 7.00.
On the same counts, the results for `C=C[C@@H]1C[C@]1(NC(=O)[C@@H]1C[C@@H](Oc2nccc3ccccc23)CN1C(=O)[C@@H](NC(=O)Oc1ccccc1)C(C)(C)C)C(=O)NS(=O)(=O)C1CC1` [Compound 121] are greater than 7.00 and 6.00 to 7.00.
For `C=C[C@@H]1C[C@]1(NC(=O)[C@@H]1C[C@@H](Oc2nccc3ccc(F)cc23)CN1C(=O)[C@@H](NC(=O)OC(C)(C)C)C(C)(C)C)C(=O)NS(=O)(=O)C1CC1` [Compound 257], in test [1] (setting [3]), the negative logarithm of the IC50 (pIC50) was greater than 7.00. Further, the pEC50 in test [2] (setting [4]) is greater than 7.00.
For the compound `C=C[C@@H]1C[C@]1(NC(=O)[C@@H]1CC(Oc2nc(-c3ccccc3)cc3ccccc23)CN1C(=O)[C@@H](NC(=O)OC(C)(C)C)[C@H](C)O)C(=O)NS(=O)(=O)C1CC1` (some centres unmarked) [Compound 107], the negative logarithm of the IC50 (pIC50) in test [1] (setting [6]) was greater than 7.00. For the same compound, the pEC50 in test [2] (setting [4]) is 6.00 to 7.00.
With `CC[C@@H]1C[C@]1(NC(=O)[C@@H]1C[C@@H](Oc2nccc3cc(OC)c(F)cc23)CN1C(=O)[C@@H](NC(=O)OC(C)(C)C)C(C)(C)C)C(=O)NS(=O)(=O)C1CC1` [Compound 298], the negative-log IC50 (pIC50) in test [1] (setting [3]) is greater than 7.00. The pEC50 in test [2] (setting [4]) is greater than 7.00.
As for `C=C[C@@H]1C[C@]1(NC(=O)[C@@H]1C[C@@H](Oc2nccc3cc(OC)ccc23)CN1C(=O)[C@@H](NC(=O)O[C@H]1CCOC1)C(C)(C)C)C(=O)NS(=O)(=O)C1CC1` [Compound 19], the pIC50 in test [1] (setting [3]) is greater than 7.00. The pEC50 in test [2] (setting [4]) was greater than 7.00.

By pIC50 is commonly meant the IC50 on a negative log10 scale, so that one unit is a factor of ten. Usually pEC50 stands for the EC50 on a negative log10 scale, so that one unit is a factor of ten.

The values above are taken from patent US7915291B2, “Hepatitis C virus inhibitors” (Bristol-Myers Squibb Company, priority 2002, dated 2011).
